Measured values from ChEMBL document CHEMBL1909046, “DrugMatrix in vitro pharmacology data”.

How the values were obtained:
[1] = molecular target: 5-hydroxytryptamine receptor 2B (Homo sapiens, UniProt P41595); assay type: cell membranes, CHO-K1, Membrane; note: in other assays of this panel Not Active means under 50% inhibition at 10 µM
[2] = molecular target: T1, 5-hydroxytryptamine receptor 2C (Homo sapiens, UniProt P28335); experiment: DRUGMATRIX: Serotonin (5-Hydroxytryptamine) 5-HT2C radioligand binding (ligand: [3H] Mesulergine); assay type: cell membranes, CHO-K1, Membrane; settings: cho-k1; Not Active = under 50% inhibition at 10 µM
T1 sequence (P28335 whole entry): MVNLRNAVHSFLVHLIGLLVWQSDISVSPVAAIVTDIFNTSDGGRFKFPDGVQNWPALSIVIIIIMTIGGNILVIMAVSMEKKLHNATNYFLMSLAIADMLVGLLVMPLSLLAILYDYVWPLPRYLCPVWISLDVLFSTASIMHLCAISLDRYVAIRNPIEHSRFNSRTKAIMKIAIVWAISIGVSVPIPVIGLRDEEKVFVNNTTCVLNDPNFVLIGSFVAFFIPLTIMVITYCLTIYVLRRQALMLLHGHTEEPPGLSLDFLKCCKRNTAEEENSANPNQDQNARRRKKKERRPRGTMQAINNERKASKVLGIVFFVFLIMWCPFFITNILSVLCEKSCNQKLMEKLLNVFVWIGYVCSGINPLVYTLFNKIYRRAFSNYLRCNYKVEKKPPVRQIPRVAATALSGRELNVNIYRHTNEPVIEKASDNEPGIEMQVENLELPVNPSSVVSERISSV

[3] = molecular target: T2, Muscarinic acetylcholine receptor M5 (Homo sapiens, UniProt P08912); assay type: cell membranes, CHO-K1, Membrane; settings: cho-k1; note: in other assays of this panel Not Active means under 50% inhibition at 10 µM
T2 sequence (P08912 whole entry): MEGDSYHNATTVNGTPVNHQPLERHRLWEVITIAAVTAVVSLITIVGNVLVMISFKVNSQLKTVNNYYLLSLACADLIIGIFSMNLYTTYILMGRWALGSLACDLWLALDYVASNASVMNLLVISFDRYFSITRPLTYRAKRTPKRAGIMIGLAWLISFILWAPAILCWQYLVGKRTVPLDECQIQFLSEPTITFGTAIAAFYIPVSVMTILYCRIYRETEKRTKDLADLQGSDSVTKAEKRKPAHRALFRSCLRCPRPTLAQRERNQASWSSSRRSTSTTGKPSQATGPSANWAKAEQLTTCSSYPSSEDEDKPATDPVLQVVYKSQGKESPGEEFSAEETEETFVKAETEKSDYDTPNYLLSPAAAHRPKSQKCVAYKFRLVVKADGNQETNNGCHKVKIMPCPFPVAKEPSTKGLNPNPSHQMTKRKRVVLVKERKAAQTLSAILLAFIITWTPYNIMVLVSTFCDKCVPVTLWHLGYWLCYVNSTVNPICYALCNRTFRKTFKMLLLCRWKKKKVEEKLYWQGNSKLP

[4] = molecular target: T3, Alpha-2A adrenergic receptor (Homo sapiens, UniProt P08913); assay type: cell membranes, Sf9, Membrane; note: in other assays of this panel Not Active means under 50% inhibition at 10 µM
T3 sequence (P08913 whole entry): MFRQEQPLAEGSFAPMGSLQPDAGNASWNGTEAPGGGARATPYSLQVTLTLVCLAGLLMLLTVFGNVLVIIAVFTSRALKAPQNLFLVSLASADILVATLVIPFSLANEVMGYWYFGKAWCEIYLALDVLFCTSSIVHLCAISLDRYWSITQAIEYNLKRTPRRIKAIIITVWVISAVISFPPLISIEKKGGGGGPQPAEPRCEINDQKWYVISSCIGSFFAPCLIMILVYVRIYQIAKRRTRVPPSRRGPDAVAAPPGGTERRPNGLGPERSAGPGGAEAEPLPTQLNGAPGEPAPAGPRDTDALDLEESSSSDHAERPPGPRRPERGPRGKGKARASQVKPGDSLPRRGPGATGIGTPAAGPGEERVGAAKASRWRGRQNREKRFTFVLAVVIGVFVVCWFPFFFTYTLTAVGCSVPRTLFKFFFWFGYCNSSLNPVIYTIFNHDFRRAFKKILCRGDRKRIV

[5] = DRUGMATRIX: Platelet-Derived Growth Factor (PDGF) radioligand binding (ligand: [125I] PDGF); assay type: cell-based; settings: nih3t3; Not Active = under 50% inhibition at 10 µM

5-hydroxytryptamine receptor 2B, sequence (P41595 whole entry): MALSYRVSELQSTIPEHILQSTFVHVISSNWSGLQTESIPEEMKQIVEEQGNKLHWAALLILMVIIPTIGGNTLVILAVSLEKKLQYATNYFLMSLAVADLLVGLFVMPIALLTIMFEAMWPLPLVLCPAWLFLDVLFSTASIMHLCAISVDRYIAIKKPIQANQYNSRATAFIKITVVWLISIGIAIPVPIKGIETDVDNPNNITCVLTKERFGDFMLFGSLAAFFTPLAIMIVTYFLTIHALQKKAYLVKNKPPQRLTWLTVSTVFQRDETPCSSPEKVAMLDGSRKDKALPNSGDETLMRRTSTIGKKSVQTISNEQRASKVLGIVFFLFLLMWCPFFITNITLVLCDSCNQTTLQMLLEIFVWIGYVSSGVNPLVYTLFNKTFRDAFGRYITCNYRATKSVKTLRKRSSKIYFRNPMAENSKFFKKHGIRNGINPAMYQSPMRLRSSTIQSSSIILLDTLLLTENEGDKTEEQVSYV

| SMILES | IC50 ([1]; cho-k1) | IC50 [2] | IC50 [3] | IC50 ([4]; sf9) | IC50 [5] | Ki [5] | IC50 ([1]; read-out: IC50) | Ki ([1]; read-out: Ki) | Ki ([1]; cho-k1) | Ki [2] | Ki [3] | Ki ([4]; sf9) | IC50 ([4]; read-out: IC50) | Ki ([4]; read-out: Ki) |
| --- | --- | --- | --- | --- | --- | --- | --- | --- | --- | --- | --- | --- | --- | --- |
| CC(C)CN(C[C@@H](O)[C@H](Cc1ccccc1)NC(=O)O[C@H]1CCOC1)S(=O)(=O)c1ccc(N)cc1 | Not Active | Not Active | Not Active | Not Active | Not Active | Not Active |  |  |  |  |  |  |  |  |
| c1ccc(Nc2ccc(Nc3ccccc3)cc2)cc1 |  | Not Active | Not Active | Not Active | Not Active | Not Active | 142 nM | 90 nM |  |  |  |  |  |  |
| COc1cc2c3cc1Oc1cc(ccc1O)C[C@@H]1c4c(cc(OC)c(O)c4Oc4ccc(cc4)C[C@@H]3N(C)CC2)CC[N+]1(C)C.[Cl-] | Not Active | Not Active | Not Active | Not Active | Not Active | Not Active |  |  |  |  |  |  |  |  |
| NC(=O)N1c2ccccc2CCc2ccccc21 | Not Active | Not Active | Not Active | Not Active | Not Active | Not Active |  |  |  |  |  |  |  |  |
| O=C1CC[C@@H](N2C(=O)c3ccccc3C2=O)C(=O)N1 | Not Active | Not Active | Not Active | Not Active | Not Active | Not Active |  |  |  |  |  |  |  |  |
| Cc1onc(O)c1CC(N)C(=O)O (racemic) [(R,S)-AMPA] | Not Active | Not Active | Not Active | Not Active | Not Active | Not Active |  |  |  |  |  |  |  |  |
| Cc1ccc2cc3c(ccc4ccccc43)c3c2c1CC3 [3-METHYLCHOLANTHRENE] | Not Active | Not Active | Not Active | Not Active | Not Active | Not Active |  |  |  |  |  |  |  |  |
| CC[C@@]1(O)C[C@H](O[C@H]2C[C@H](N(C)C)[C@H](O[C@H]3C[C@H](O)[C@H](O[C@H]4CCC(=O)[C@H](C)O4)[C@H](C)O3)[C@H](C)O2)c2c(cc3c(c2O)C(=O)c2c(O)cccc2C3=O)[C@H]1C(=O)OC [ACLARUBICIN] |  | Not Active | Not Active | Not Active | Not Active | Not Active | 1110 nM | 704 nM |  |  |  |  |  |  |
| Nc1nc2c(ncn2COCCO)c(=O)[nH]1 [ACYCLOVIR] | Not Active | Not Active | Not Active | Not Active | Not Active | Not Active |  |  |  |  |  |  |  |  |
| Cc1c(C)c2c(c(C)c1O)CC[C@@](C)(CCC[C@H](C)CCC[C@H](C)CCCC(C)C)O2 [ALPHA-TOCOPHEROL] | Not Active | Not Active | Not Active | Not Active | Not Active | Not Active |  |  |  |  |  |  |  |  |
| CN(C)c1nc(N(C)C)nc(N(C)C)n1 [ALTRETAMINE] | Not Active | Not Active | Not Active | Not Active | Not Active | Not Active |  |  |  |  |  |  |  |  |
| Nc1c(Br)cc(Br)cc1CN[C@H]1CC[C@H](O)CC1 [AMBROXOL] | Not Active | Not Active | Not Active | Not Active | Not Active | Not Active |  |  |  |  |  |  |  |  |
| NCCCCCC(=O)O [AMINOCAPROIC ACID] | Not Active | Not Active | Not Active | Not Active | Not Active | Not Active |  |  |  |  |  |  |  |  |
| CCC1(c2ccc(N)cc2)CCC(=O)NC1=O (stereo not given) [AMINOGLUTETHIMIDE] | Not Active | Not Active | Not Active | Not Active | Not Active | Not Active |  |  |  |  |  |  |  |  |
| Cc1ccc(/N=C/N(C)/C=N/c2ccc(C)cc2C)c(C)c1 [AMITRAZ] | Not Active | Not Active | Not Active |  | Not Active | Not Active |  |  |  |  |  |  |  |  |
| CCOC(=O)C1=C(COCCN)NC(C)=C(C(=O)OC)C1c1ccccc1Cl (stereo not given) [AMLODIPINE] | Not Active | Not Active | Not Active |  | Not Active | Not Active |  |  |  |  |  |  |  |  |

| SMILES | IC50 ([1]; cho-k1) | IC50 [2] | IC50 [3] | IC50 ([4]; sf9) | IC50 [5] | Ki [5] | IC50 ([1]; read-out: IC50) | Ki ([1]; read-out: Ki) | Ki ([1]; cho-k1) | Ki [2] | Ki [3] | Ki ([4]; sf9) | IC50 ([4]; read-out: IC50) | Ki ([4]; read-out: Ki) |
| --- | --- | --- | --- | --- | --- | --- | --- | --- | --- | --- | --- | --- | --- | --- |
| COc1ccc(C[C@H]2NC[C@H](O)[C@H]2OC(C)=O)cc1 [ANISOMYCIN] | Not Active | Not Active | Not Active | Not Active | Not Active | Not Active |  |  | Not Active | Not Active | Not Active | Not Active |  |  |
| Nc1ncn([C@@H]2O[C@H](CO)[C@@H](O)[C@H]2O)c(=O)n1 [AZACITIDINE] | Not Active | Not Active | Not Active | Not Active | Not Active | Not Active |  |  |  |  |  |  |  |  |
| CN(C)C(=O)Oc1cc(OC(=O)N(C)C)cc(C(O)CNC(C)(C)C)c1 (stereo not given) [BAMBUTEROL] | Not Active | Not Active | Not Active | Not Active | Not Active | Not Active |  |  |  |  |  |  |  |  |
| c1ccc2c(c1)c1cccc3ccc4cccc2c4c31 [BENZO[E]PYRENE] | Not Active | Not Active | Not Active | Not Active | Not Active | Not Active |  |  |  |  |  |  |  |  |
| CNCCc1ccccn1 [BETAHISTINE] | Not Active | Not Active | Not Active | Not Active | Not Active | Not Active |  |  |  |  |  |  |  |  |
| CC(C)C(Br)C(=O)NC(N)=O (stereo not given) [BROMISOVALUM] | Not Active | Not Active | Not Active | Not Active | Not Active | Not Active |  |  |  |  |  |  |  |  |
| CCCC1O[C@@H]2C[C@H]3[C@@H]4CCC5=CC(=O)C=C[C@]5(C)[C@H]4[C@@H](O)C[C@]3(C)[C@]2(C(=O)CO)O1 (stereo not given in full) [BUDESONIDE] | Not Active | Not Active | Not Active | Not Active | Not Active | Not Active |  |  |  |  |  |  |  |  |
| CC(NC(C)(C)C)C(=O)c1cccc(Cl)c1 (stereo not given) [BUPROPION] | Not Active | Not Active | Not Active | Not Active | Not Active | Not Active |  |  |  |  |  |  |  |  |
| CN(Cc1ccc(C(C)(C)C)cc1)Cc1cccc2ccccc12 [BUTENAFINE] | Not Active | Not Active | Not Active |  | Not Active | Not Active |  |  |  |  |  |  | 3640 nM | 1370 nM |
| C[C@H](CS)C(=O)N1CCC[C@H]1C(=O)O [CAPTOPRIL] | Not Active | Not Active | Not Active | Not Active | Not Active | Not Active |  |  |  |  |  |  |  |  |
| CN(C)CCCN1c2ccccc2Sc2ccc(Cl)cc21 [CHLORPROMAZINE] |  |  |  |  | Not Active | Not Active |  |  |  |  |  |  |  |  |
| Clc1cccc(Cl)c1NC1=NCCN1 [CLONIDINE] | Not Active | Not Active | Not Active |  | Not Active | Not Active |  |  |  |  |  |  |  |  |
| COc1cc2nc(N3CCN(C(=O)C4COc5ccccc5O4)CC3)nc(N)c2cc1OC (stereo not given) [DOXAZOSIN] |  |  | Not Active | Not Active | Not Active | Not Active |  |  |  |  |  |  |  |  |
| C[C@]12CC[C@@H]3c4ccc(O)cc4CC[C@H]3[C@@H]1CCC2=O [ESTRONE] |  | Not Active | Not Active | Not Active | Not Active | Not Active |  |  |  |  |  |  |  |  |
| CCCN1C[C@H](CSC)C[C@@H]2c3cccc4[nH]cc(c34)C[C@H]21 [PERGOLIDE] |  |  | Not Active |  | Not Active | Not Active | 76 nM | 49 nM |  |  |  |  |  |  |
| Cc1ccc(N(CC2=NCCN2)c2cccc(O)c2)cc1 [PHENTOLAMINE] |  |  | Not Active |  | Not Active | Not Active |  |  |  |  |  |  |  |  |
